We go through 34 molecules from article PMC9788431, “Combination of Docking-Based and Pharmacophore-Based Virtual Screening Identifies Novel Agonists That Target the Urotensin Receptor” (Molecules, 2022).

The structures appear in SMILES notation.

One may read the IC50 as the concentration at which inhibition is half-maximal.

The target of the first assay is T1, UT receptor (Homo sapiens, UniProt Q9UKP6).
T1 construct: SNAP-tag; expressed in transfected cells; host or cells: 293A8 (HEK293A stably transfected with the UT receptor); inferred, the calcium-assay paragraph names no cells
T1 sequence (Q9UKP6 1-389): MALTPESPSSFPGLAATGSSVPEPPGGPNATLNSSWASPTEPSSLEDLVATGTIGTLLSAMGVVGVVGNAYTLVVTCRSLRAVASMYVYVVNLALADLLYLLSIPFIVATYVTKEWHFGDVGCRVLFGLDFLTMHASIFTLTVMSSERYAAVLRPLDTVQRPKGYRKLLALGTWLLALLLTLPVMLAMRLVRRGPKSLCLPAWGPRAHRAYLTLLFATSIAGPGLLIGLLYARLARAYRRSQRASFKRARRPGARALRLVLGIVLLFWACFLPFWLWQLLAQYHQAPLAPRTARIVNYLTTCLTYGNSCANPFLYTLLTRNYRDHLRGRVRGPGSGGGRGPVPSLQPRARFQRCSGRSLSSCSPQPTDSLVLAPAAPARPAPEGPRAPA
Test: not given
More on the design: method as in ChEMBL database and others. The settings on record: antagonist; Table S1 benchmarking ligands; ref ChEMBL database and others; cited from earlier work.
Take `CC(C)[C@H](NC(=O)[C@@H]1CSSC[C@H](NC(=O)[C@H](C)N)C(=O)N[C@@H](Cc2ccccc2)C(=O)N2CCc3ccccc3[C@@H]2C(=O)N[C@@H](CCCCN)C(=O)N[C@@H](Cc2ccc(O)cc2)C(=O)N1)C(=O)O` [CHEMBL3104465]: the concentration for half-maximal inhibition (IC50) is 0.021 µM. `CC(C)[C@H](NC(=O)[C@@H]1CSSC[C@H](NC(=O)[C@H](C)N)C(=O)N[C@@H](Cc2ccccc2)C(=O)N2Cc3ccccc3C[C@@H]2C(=O)N[C@@H](CCCCN)C(=O)N[C@@H](Cc2ccc(O)cc2)C(=O)N1)C(=O)O` [CHEMBL3104467]: the IC50 was 0.088 µM.

In the case of `CC(C)[C@H](NC(=O)[C@@H]1CSSC[C@H](NC(=O)[C@H](C)N)C(=O)N[C@@H](Cc2ccccc2)C(=O)N[C@@H](Cc2c[nH]c3ccccc23)C(=O)N[C@@H](CCCCN)C(=O)N[C@@H](Cc2ccc(O)cc2)C(=O)N1)C(=O)O` [CHEMBL3104471], the IC50 was 0.012 µM. Consider `CC(C)[C@H](NC(=O)[C@@H]1CSSC[C@H](NC(=O)[C@H](C)N)C(=O)N[C@@H](Cc2ccccc2)C(=O)N[C@@H](Cc2cccc3ccccc23)C(=O)N[C@@H](CCCCN)C(=O)N[C@@H](Cc2ccc(O)cc2)C(=O)N1)C(=O)O` [CHEMBL3104637], for which the IC50 was 0.017 µM.

With `CC(C)[C@H](NC(=O)[C@@H]1CSSC[C@H](NC(=O)[C@H](C)N)C(=O)N[C@@H](Cc2ccccc2)C(=O)N[C@H](Cc2cccc3ccccc23)C(=O)N[C@@H](CCCCN)C(=O)N[C@@H](Cc2ccc(O)cc2)C(=O)N1)C(=O)O` [CHEMBL3104638], the IC50 was 0.046 µM. `CC(C)[C@H](NC(=O)[C@@H]1CSSC[C@H](NC(=O)[C@H](C)N)C(=O)N[C@@H](Cc2ccccc2)C(=O)N[C@@H](Cc2ccc(I)cc2)C(=O)N[C@@H](CCCCN)C(=O)N[C@@H](Cc2ccc(O)cc2)C(=O)N1)C(=O)O` [CHEMBL3104639]: the IC50 is 0.058 µM. Consider `CC(C)[C@H](NC(=O)[C@@H]1CSSC[C@H](NC(=O)[C@H](C)N)C(=O)N[C@@H](Cc2ccccc2)C(=O)N[C@@H](C(c2ccccc2)c2ccccc2)C(=O)N[C@@H](CCCCN)C(=O)N[C@@H](Cc2ccc(O)cc2)C(=O)N1)C(=O)O` [CHEMBL3104643], for which the IC50 was 0.277 µM. As for `Cn1ccc2c(NC(=O)NCCN3CCC(O)(Cc4ccccc4)CC3)ccnc21` [CHEMBL3358667], the IC50 was 0.16 µM.

For the molecule `O=C(NCCN1CCC(O)(Cc2ccccc2)CC1)Nc1ccnc2ccoc12` [CHEMBL3358671], the IC50 was 0.45 µM.

As for `O=C(NCCN1CCC(O)(Cc2ccccc2)CC1)Nc1ccnc2sccc12` [CHEMBL3358673], the half-inhibitory concentration (IC50) is 0.93 µM. In the case of `Cc1cc2nccc(NC(=O)NCCN3CCC(O)(Cc4ccccc4)CC3)c2s1` [CHEMBL3358674], the IC50 is 0.078 µM. In the case of `Cc1cc(NC(=O)NCCN2CCC(O)(Cc3ccccc3)CC2)c2sccc2n1` [CHEMBL3358679], the IC50 is 0.026 µM. Consider `CCc1cc(NC(=O)NCCN2CCC(O)(Cc3ccccc3)CC2)c2sccc2n1` [CHEMBL3358680], for which the concentration for half-maximal inhibition (IC50) is 0.06 µM.

Take `Cc1ccccc1CC1(O)CCN(CCNC(=O)Nc2ccnc3ccsc23)CC1` [CHEMBL3358682]: the IC50 was 0.02 µM. `Cc1cccc(CC2(O)CCN(CCNC(=O)Nc3ccnc4ccsc34)CC2)c1` [CHEMBL3358683]: the IC50 is 0.14 µM. In the case of `Cc1ccc(CC2(O)CCN(CCNC(=O)Nc3ccnc4ccsc34)CC2)cc1` [CHEMBL3358684], the IC50 was 0.19 µM. As to `O=C(NCCN1CCC(O)(Cc2ccccc2Br)CC1)Nc1ccnc2ccsc12` [CHEMBL3358685], the IC50 is 0.02 µM. As to `O=C(NCCN1CCC(O)(Cc2cccc(Br)c2)CC1)Nc1ccnc2ccsc12` [CHEMBL3358686], the IC50 was 0.042 µM.

As for `O=C(NC1CCN(Cc2ccc(OC3CCNCC3)c(Br)c2)CC1)c1cc2cc(Cl)ccc2s1` [CHEMBL3896625], the IC50 was 0.051 µM. For `Cc1ccc(-c2ccc3cc(C(=O)NC4CCN(Cc5ccc(OC6CCNCC6)c(Br)c5)CC4)sc3c2)cc1` [CHEMBL3898238], the IC50 was 0.14 µM. For the molecule `O=C(NC1CCN(Cc2ccc(OC3CCNCC3)c(Br)c2)CC1)c1cc2cc(C(F)(F)F)ccc2s1` [CHEMBL3906682], the IC50 was 0.1 µM. Turning to `O=C(NC1CCN(Cc2ccc(OC3CCNCC3)c(Br)c2)CC1)c1cc2ccc(-c3ccc(Cl)cc3)cc2s1` [CHEMBL3907266], the IC50 was 0.14 µM. As for `COc1ccccc1-c1ccc2cc(C(=O)NC3CCN(Cc4ccc(OC5CCNCC5)c(Br)c4)CC3)sc2c1` [CHEMBL3915656], the IC50 is 0.56 µM. As for `O=C(NC1CCN(Cc2ccc(OC3CCNCC3)c(Br)c2)CC1)c1cc2cc(Br)ccc2s1` [CHEMBL3915670], the IC50 was 0.086 µM. `O=C(NC1CCN(Cc2ccc(OC3CCNCC3)c(Br)c2)CC1)c1cnccn1` [CHEMBL3920751]: the IC50 was 0.61 µM.

With `O=C(NC1CCN(Cc2ccc(OC3CCNCC3)c(Br)c2)CC1)c1cc2cc(F)ccc2s1` [CHEMBL3924660], the IC50 was 0.053 µM. With `O=C(NC1CCN(Cc2ccc(OC3CCNCC3)c(Br)c2)CC1)c1ccco1` [CHEMBL3942137], the IC50 is 0.77 µM.

As for `O=C(NC1CCN(Cc2ccc(OC3CCNCC3)c(Br)c2)CC1)c1cc2cc(-c3ccccc3)ccc2s1` [CHEMBL3949719], the IC50 is 0.31 µM. On to `COc1ccc2sc(C(=O)NC3CCN(Cc4ccc(OC5CCNCC5)c(Br)c4)CC3)cc2c1` [CHEMBL3957806], for which the IC50 was 0.1 µM. On to `Cc1ccc2sc(C(=O)NC3CCN(Cc4ccc(OC5CCNCC5)c(Br)c4)CC3)cc2c1` [CHEMBL3968841], for which the IC50 is 0.074 µM. With `N#Cc1ccc2sc(C(=O)NC3CCN(Cc4ccc(OC5CCNCC5)c(Br)c4)CC3)cc2c1` [CHEMBL3977330], the IC50 was 0.025 µM. `O=C(NC1CCN(Cc2ccc(OC3CCNCC3)c(Br)c2)CC1)c1cccs1` [CHEMBL3979822]: the IC50 was 0.13 µM. As to `COc1cccc(-c2ccc3cc(C(=O)NC4CCN(Cc5ccc(OC6CCNCC6)c(Br)c5)CC4)sc3c2)c1` [CHEMBL3987058], the IC50 was 0.087 µM.

For a further assay, the target named is T1, UT receptor. The assay can be described thus: intracellular calcium mobilization (Fluo-8 calcium assay). Format: cell-based. The note with it: palosuran 10^−7 M, with Compounds 1, 2, 3. How it is done:
HTLA cells (a HEK293 cell line stably expressing a tTA-dependent luciferase reporter and a β-arrestin2-TEV fusion gene) were a gift from the laboratory of R. Axel (he has given us permission to distribute them) and are maintained in DMEM supplemented with 10% FBS, 100 U/mL penicillin and 100 μg/mL streptomycin, 2 μg/mL puromycin and 100 μg/mL hygromycin B. HepG2 cells (C5 passage, human hepatoma cell line) were purchased from the National Platform of Experimental Cell Resources for Sci-Tech, Chinese Academy of Medical Sciences (Beijing, China), and 293A8 cells were the cell line HEK293A stably transfected with the UT receptor in our laboratory. HepG2 and 293A8 cells were grown in high glucose (25 mmol/L) Dulbecco’s modified Eagle’s medium (DMEM, Gibco, CA, USA) supplemented with 10% fetal bovine serum (FBS, Gibco, CA, USA), 100 U/mL penicillin and 100 µg/mL streptomycin solution (Solarbio, Beijing, China). Cells were cultured in a standard humidified incubator at 37 °C under a 5% CO2 atmosphere. The media were changed every 2 days. Subcultures were performed at a ratio of 1:3 when cells were approximately 75–85% confluent.
Measurement of intracellular calcium mobilization was performed using Fluo-8 Calcium Assay Kit (Applygen, Beijing, China) following the manufacturer’s instructions.
In general terms: Calcium assays in cells follow changes in intracellular calcium, usually with a dye or a luminescent sensor.
With `Cc1cc(NC(=O)NCCN2CCC(O)(Cc3ccccc3)CC2)c2ccccc2n1` [palosuran], the “effect of palosuran preincubation on compound-induced intracellular calcium mobilization” value is listed as “specifically reduced the increase in intracellular calcium mobilization”.
